Results: PMC12340637, “Transport of Small Aliphatic Amines by Polyspecific Solute Carriers: Deciphering Structure–Function Relationships” (ACS Pharmacology & Translational Science, 2025)
Read-outs that look alike come from different tables or passages of the source. Marks after values point to notes of the source that are not given here.

Legend:
OCT2 (SLC22A2) [1] = target: T1, OCT2 (SLC22A2) (Homo sapiens, UniProt O15244); experiment: in vitro; conditions: pH 7.4
T1 sequence (O15244 1-555): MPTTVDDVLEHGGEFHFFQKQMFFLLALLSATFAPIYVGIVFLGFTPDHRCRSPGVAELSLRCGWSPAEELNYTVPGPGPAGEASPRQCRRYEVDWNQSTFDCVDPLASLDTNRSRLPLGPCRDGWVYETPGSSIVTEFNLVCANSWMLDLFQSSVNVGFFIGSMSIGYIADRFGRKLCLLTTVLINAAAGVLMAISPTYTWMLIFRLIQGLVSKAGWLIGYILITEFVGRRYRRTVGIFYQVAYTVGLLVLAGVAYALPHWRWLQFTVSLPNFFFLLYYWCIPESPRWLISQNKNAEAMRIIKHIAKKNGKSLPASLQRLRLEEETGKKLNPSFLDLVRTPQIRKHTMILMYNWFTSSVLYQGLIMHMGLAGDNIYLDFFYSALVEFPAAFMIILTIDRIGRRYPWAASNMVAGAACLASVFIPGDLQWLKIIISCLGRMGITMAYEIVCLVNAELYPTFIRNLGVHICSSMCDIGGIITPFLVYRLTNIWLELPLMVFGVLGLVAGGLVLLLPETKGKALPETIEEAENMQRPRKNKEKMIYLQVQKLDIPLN

MATE2-K (SLC47A2) [2] = target: T2, MATE2-K (SLC47A2) (Homo sapiens, UniProt Q86VL8); experiment: in vitro; conditions: pH 7.4
T2 sequence (Q86VL8 1-566 isoform Q86VL8-3): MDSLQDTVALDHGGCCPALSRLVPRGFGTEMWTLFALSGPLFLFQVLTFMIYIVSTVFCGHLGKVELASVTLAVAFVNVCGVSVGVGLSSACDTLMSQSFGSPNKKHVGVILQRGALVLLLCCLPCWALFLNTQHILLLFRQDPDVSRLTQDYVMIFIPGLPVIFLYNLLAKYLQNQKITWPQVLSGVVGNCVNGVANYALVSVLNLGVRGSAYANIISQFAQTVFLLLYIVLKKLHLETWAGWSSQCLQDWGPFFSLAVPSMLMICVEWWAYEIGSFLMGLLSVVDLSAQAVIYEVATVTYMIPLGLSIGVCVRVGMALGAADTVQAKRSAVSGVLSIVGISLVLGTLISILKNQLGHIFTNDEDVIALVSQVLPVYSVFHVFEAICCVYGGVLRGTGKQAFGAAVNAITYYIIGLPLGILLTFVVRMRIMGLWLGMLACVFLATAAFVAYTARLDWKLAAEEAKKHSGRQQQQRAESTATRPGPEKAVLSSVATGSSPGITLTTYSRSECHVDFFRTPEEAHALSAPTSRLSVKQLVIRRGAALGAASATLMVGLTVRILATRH

MATE1 (SLC47A1) [3] = target: T3, MATE1 (SLC47A1) (Homo sapiens, UniProt Q96FL8); experiment: in vitro; conditions: pH 7.4
T3 sequence (Q96FL8 1-570): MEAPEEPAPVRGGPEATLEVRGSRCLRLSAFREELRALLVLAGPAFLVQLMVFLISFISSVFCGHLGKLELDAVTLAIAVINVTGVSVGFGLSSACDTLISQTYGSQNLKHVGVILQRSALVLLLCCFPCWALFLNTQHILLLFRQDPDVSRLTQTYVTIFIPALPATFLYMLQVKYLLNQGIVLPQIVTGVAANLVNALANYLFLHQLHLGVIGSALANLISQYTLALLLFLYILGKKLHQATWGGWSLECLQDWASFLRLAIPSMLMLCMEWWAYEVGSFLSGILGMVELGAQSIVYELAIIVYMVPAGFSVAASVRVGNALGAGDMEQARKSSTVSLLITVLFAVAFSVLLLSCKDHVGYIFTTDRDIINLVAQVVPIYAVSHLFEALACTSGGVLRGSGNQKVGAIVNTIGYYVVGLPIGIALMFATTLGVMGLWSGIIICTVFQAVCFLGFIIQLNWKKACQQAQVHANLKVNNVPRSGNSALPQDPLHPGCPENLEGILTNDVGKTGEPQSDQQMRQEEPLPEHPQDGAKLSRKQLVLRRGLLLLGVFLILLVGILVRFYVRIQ

OCT1 (SLC22A1) [4] = target: T4, OCT1 (SLC22A1) (Homo sapiens, UniProt O15245); experiment: in vitro; conditions: pH 7.4
T4 sequence (O15245 1-554): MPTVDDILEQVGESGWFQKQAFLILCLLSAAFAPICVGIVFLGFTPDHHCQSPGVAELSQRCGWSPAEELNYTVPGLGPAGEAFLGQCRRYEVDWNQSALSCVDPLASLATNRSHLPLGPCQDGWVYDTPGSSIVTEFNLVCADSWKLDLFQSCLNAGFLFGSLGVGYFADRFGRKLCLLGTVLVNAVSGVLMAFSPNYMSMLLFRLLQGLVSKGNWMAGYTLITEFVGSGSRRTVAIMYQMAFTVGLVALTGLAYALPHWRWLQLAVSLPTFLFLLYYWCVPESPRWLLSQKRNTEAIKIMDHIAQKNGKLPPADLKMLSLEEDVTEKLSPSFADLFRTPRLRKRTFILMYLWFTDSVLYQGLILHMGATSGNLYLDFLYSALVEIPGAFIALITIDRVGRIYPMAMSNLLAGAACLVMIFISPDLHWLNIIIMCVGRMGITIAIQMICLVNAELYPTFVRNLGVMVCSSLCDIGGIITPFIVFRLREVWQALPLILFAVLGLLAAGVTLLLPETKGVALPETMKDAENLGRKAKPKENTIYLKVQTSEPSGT

OCT2 (SLC22A2) [5] = target: T1, OCT2 (SLC22A2); experiment: Cellular uptake into OCT2-overexpressing HEK293 cells vs EV control cells (HPLC-MS/MS)
MATE2-K (SLC47A2) [6] = target: T2, MATE2-K (SLC47A2)
OCT1 (SLC22A1) [7] = target: T4, OCT1 (SLC22A1); experiment: Cellular uptake into OCT1-overexpressing HEK293 cells vs EV control cells (HPLC-MS/MS)
OCT3 (SLC22A3) = target: T5, OCT3 (SLC22A3) (Homo sapiens, UniProt O75751); experiment: Cellular uptake into OCT3-overexpressing HEK293 cells vs EV control cells (HPLC-MS/MS)
T5 sequence (O75751 1-556): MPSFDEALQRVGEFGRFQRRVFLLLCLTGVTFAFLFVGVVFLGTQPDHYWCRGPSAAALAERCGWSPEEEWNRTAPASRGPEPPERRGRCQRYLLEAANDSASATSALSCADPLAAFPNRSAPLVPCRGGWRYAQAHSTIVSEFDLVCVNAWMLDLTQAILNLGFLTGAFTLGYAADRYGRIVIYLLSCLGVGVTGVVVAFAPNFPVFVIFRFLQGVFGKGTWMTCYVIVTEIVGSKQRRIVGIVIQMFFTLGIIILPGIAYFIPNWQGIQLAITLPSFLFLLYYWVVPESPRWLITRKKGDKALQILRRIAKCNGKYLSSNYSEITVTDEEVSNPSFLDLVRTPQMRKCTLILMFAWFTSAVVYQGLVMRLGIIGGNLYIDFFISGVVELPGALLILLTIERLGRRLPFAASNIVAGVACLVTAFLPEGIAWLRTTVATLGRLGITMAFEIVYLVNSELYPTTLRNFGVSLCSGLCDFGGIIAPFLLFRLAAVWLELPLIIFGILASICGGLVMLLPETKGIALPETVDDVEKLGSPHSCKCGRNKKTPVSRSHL

OCT2 (SLC22A2) [8] = target: T1, OCT2 (SLC22A2); conditions: pH 7.4
MATE1 (SLC47A1) [9] = target: T3, MATE1 (SLC47A1); experiment: Cellular uptake into MATE1-overexpressing HEK293 cells vs EV control cells (HPLC-MS/MS)
MATE2-K (SLC47A2) [10] = target: T2, MATE2-K (SLC47A2); experiment: Cellular uptake into MATE2-K-overexpressing HEK293 cells vs EV control cells (HPLC-MS/MS)
OCTs 1–3 = tested on: OCTs 1–3; parameters: method as in Sala-Rabanal et al. (2013); conditions: rodent orthologues, ref Sala-Rabanal et al. (2013), cited from earlier work
OCT2 = target: T6, OCT2 (Homo sapiens, UniProt O15244); parameters: method as in Higashi et al. (2014); conditions: ref Higashi et al. (2014); cited from earlier work
T6 sequence (O15244 1-555): T1 sequence (O15244 1-555)

[11] = OCT2, net uptake, Michaelis–Menten
[12] = uptake ratio ≥2 = notable transport

## C[C@@H](N)CCO [(R)-3-aminobutan-1-ol]
OCT2 (SLC22A2) [1]
  selectivity ratio at 2 min: 2.7
MATE2-K (SLC47A2) [2]
  selectivity ratio at 1 min: 1.4
MATE1 (SLC47A1) [3]
  selectivity ratio at 1 min: 1.9
OCT1 (SLC22A1) [4]
  selectivity ratio at 2 min: 1.1

## CCC[C@@H](N)CO [(R)-(−)-2-amino-1-pentanol]
OCT2 (SLC22A2) [5]; [11]
  K m (±SEM): 198 (±67) μM
  v max (±SEM): 1453 (±179) ^a pmol/mg protein/min
MATE2-K (SLC47A2) [2]
  selectivity ratio at 1 min: 1.2
MATE1 (SLC47A1) [3]
  selectivity ratio at 1 min: 1.5
OCT1 (SLC22A1) [4]
  selectivity ratio at 2 min: 1.1

## C[C@H](N)CN [(S)-(−)-1,2-diaminopropane]
OCT2 (SLC22A2) [5]; label = favoured enantiomer
  stereoselectivity OCT2 (uptake ratio of the more strongly transported enantiomer divided by that of the other): 1.2-fold for (S)
MATE2-K (SLC47A2) [6]
  stereoselectivity MATE2K (uptake ratio of the more strongly transported enantiomer divided by that of the other): 1.1-fold for (S)
OCT1 (SLC22A1) [7]; label = favoured enantiomer
  stereoselectivity OCT1 (uptake ratio of the more strongly transported enantiomer divided by that of the other): 1.3-fold for (S)
OCT3 (SLC22A3); label = favoured enantiomer
  stereoselectivity OCT3 (uptake ratio of the more strongly transported enantiomer divided by that of the other): 1.4-fold for (S)

## CC(C)NC(C)C [diisopropylamine]
OCT2 (SLC22A2) [8]
  CLint (±SEM): 20 (±12) μL/mg protein/min
MATE1 (SLC47A1) [9]
  uptake ratio MATE1 (transporter-overexpressing cells over EV control cells): mean (±SD, N): 0.8 (0.02, 3) ^b
OCT2 (SLC22A2) [5]
  uptake ratio OCT2 (transporter-overexpressing cells over EV control cells): mean (±SD, N): 5.1 (1.2, 4) ^b
  v max (±SEM): 1388 (±157) pmol/mg protein/min
OCT1 (SLC22A1) [7]
  uptake ratio OCT1 (transporter-overexpressing cells over EV control cells): mean (±SD, N): 1.4 (0.3, 4)
MATE2-K (SLC47A2) [10]
  uptake ratio MATE2K (transporter-overexpressing cells over EV control cells): mean (±SD, N): 1.2 (0.1, 3)
OCT3 (SLC22A3); 10 μM substrate, 2 min, HEK293
  uptake ratio OCT3 (transporter-overexpressing cells over EV control cells): mean (±SD, N): 1.1 (0.2, 4)

## NCCCCNCCCN [spermidine]
MATE1 (SLC47A1) [9]; [12]
  substrate activity at MATE1 (in words): did not show any substrate activity
OCTs 1–3; OCT-expressing oocytes
  K m of spermidine transport: 1 mM
OCTs 1–3
  increase in spermidine uptake by OCT-expressing oocytes compared to non-injected oocytes: up to 3 fold
OCT2 (SLC22A2) [5]; [12]
  substrate activity at OCT2 (in words): did not show any substrate activity
OCT1 (SLC22A1) [7]; [12]
  substrate activity at OCT1 (in words): did not show any substrate activity
MATE2-K (SLC47A2) [10]; [12]
  substrate activity at MATE2-K (in words): did not show any substrate activity
OCT2
  K m of spermidine transport: 6.76 mM
OCT3 (SLC22A3); [12]
  substrate activity at OCT3 (in words): did not show any substrate activity
